PubChem BioAssay (NCI)
“And” between values parts separate entries of the source, which are not always exact repeats. Identical values can stand only once.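 Briefly, cells in 96-well plates were exposed to five compound concentrations for 48 h, and endpoints were estimated by linear interpolation. At the GI50, growth is halved. TGI marks complete inhibition of growth.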

Key:
Experiment in all cases: NCI anticancer screen, dose series, 48 h
[1] = test system: 786-0 renal
[2] = test system: RXF 393 renal
[3] = test system: SK-OV-3 ovarian
[4] = test system: HOP-62 NSCLC
[5] = test system: SF-539 CNS
[6] = test system: EKVX NSCLC
[7] = test system: NCI-H460 lung
[8] = test system: NCI-H23 lung
[9] = test system: SN12C renal
[10] = test system: SK-MEL-28 melanoma

Row | Compound | TGI [1] [µM] | TGI [2] [µM] | TGI [3] [µM] | TGI [4] [µM] | TGI [5] [µM] | TGI [6] [µM] | TGI [7] [µM] | TGI [8] [µM] | TGI [9] [µM] | TGI [10] [µM] | GI50 [1] | GI50 [3] | GI50 [4] | GI50 [5] | GI50 [7] | GI50 [8] | GI50 [10] [µM] | GI50 [9] | GI50 [2] [µM] | GI50 [6] [µM]
1 | O=C(O)C(Cc1ccccc1)N1C(=O)N/C(=C\c2ccc(F)cc2)C1=O (stereo not drawn) | > 100 | > 100 | > 100 | > 100 | > 100 | > 100 | > 100 | > 100 | > 100 |  |  |  |  |  |  |  |  |  |  | 
2 | CCOC(=O)COc1cccc2c1C(=O)CCO2 | > 100 |  | > 100 | > 100 | > 100 | > 100 | > 100 | > 100 | > 100 | > 100 |  |  |  |  |  |  |  |  |  | 
3 | CCOC(=O)C1=C(C)CC2C(=O)OC(=O)C2C1(C)C (stereo not drawn) | > 100 | > 100 | > 100 |  | > 100 | > 100 | > 100 | > 100 | > 100 | > 100 |  |  |  |  |  |  |  |  |  | 
4 | O=[S@@]1Nc2ccc(Br)cc2S1 | > 100 |  | > 100 |  | > 100 | > 100 |  | > 100 | > 100 | > 100 |  |  |  |  |  |  |  |  |  | 
5 | COc1cc2cnc3c4cc(OC(C)C)c(OC)cc4ccc3c2cc1OC | > 100 |  | > 100 | > 100 | > 100 | > 100 | > 100 | > 100 | > 100 | > 100 |  |  |  |  |  |  |  |  |  | 
6 | COC(=O)[C@@H](C)C[C@H](Cc1ccc(F)cc1)NC(=O)c1csc([C@@H](C[C@H](C(C)C)N(C)C(=O)[C@@H](NC(=O)[C@H]2CCCCN2C)C(C)C)OC(C)=O)n1 | > 16.7 |  | > 16.7 | > 16.7 |  | > 16.7 | > 16.7 | > 16.7 | > 16.7 | > 16.7 | 0.00319 µM and 0.0147 µM | 0.00736 µM and 0.0553 µM | 0.00187 µM and 0.0102 µM | 0.00153 µM and 0.00714 µM | 0.000678 µM and 0.0063 µM | 0.00355 µM and 0.0134 µM | > 16.7 | 0.00197 µM and 0.013 µM |  | 
7 | CN(CC(=O)O)S(=O)(=O)c1ccc2ccccc2c1 | > 100 | > 100 | > 100 |  | > 100 | > 100 | > 100 | > 100 | > 100 | > 100 |  |  |  |  |  |  |  |  |  | 
8 | COC(=O)[C@@]12C3=NO[C@]1(C(=O)OC)C(O[Si](C)(C)C(C)(C)C)[C@H]1OC(C)(C)O[C@H]1[C@@H]2C(OCc1ccccc1)CC3 (stereo partly drawn) | > 100 |  | > 100 |  | > 100 | > 100 | 23.7 | > 100 | > 100 | > 100 |  |  |  |  |  |  |  |  |  | 
9 | CCN(CC)CC(C(=O)Nc1c(C)cccc1C)/C(C)=N\NC(=O)C[N+](C)(C)C (stereo not drawn) | > 100 | > 100 | > 100 | > 100 | > 100 |  | > 100 | > 100 | > 100 | > 100 |  |  |  |  |  |  |  |  |  | 
10 | CC(=O)[O][Hg][c]1c(N)c(C)cc(C)c1F | 3.32 | 2.88 | 15.5 | 5.49 | 3.11 |  | 4.3 |  | 2.72 | 2.83 | 1.79 µM | 4.36 µM | 2.75 µM | 1.57 µM | 1.74 µM |  | 1.37 | 1.36 µM | 1.52 | 
11 | FC(F)(F)c1ccc(C2SCc3nc4ccccc4n32)cc1 (stereo not drawn) | > 100 | > 100 | > 100 |  | > 100 | > 100 |  | > 100 | > 100 | > 100 |  |  |  |  |  |  |  |  |  | 
12 | O=c1cc(-c2cccc(O)c2)[nH]c2cc3c(cc12)OCO3 | > 69.9 | > 100 | 8.27 | 14.7 | 4.39 |  | > 100 | > 100 | > 78 | 83.5 |  |  |  |  |  |  |  |  |  | 
13 | CCOC(=O)Nc1nc2ccc(OCC)cc2s1 | > 100 | > 100 | > 100 | > 100 | > 100 |  | > 100 | > 100 | > 100 | > 100 | > 100 µM | > 100 µM | 39.4 µM | 20.2 µM | 6.28 µM | > 100 µM | > 60.7 | > 93.4 µM | > 53.4 | 
14 | CCCCCCCCSC1=CC(=O)c2nc3ccccc3c3ccnc1c23 | > 100 |  | > 100 | > 100 | > 100 | > 100 | > 100 | > 100 | > 100 | > 100 | > 100 µM | > 100 µM | > 100 µM | > 100 µM | 26.3 µM | 58.2 µM | 42.7 | 14 µM |  | > 100
15 | CC(C)=CCCc1c(C)ccc2c1C(=O)C(=O)C(C(C)C)=C2 | 7.07 | 6.79 | > 22 |  | 8.84 | > 22 | > 22 | 8.52 | > 22 | 6.92 |  |  |  |  |  |  |  |  |  | 
16 | Cc1cc(=O)[nH]c(NNC(C#N)c2cccc(O)c2)n1 (stereo not drawn) | > 100 | > 100 | > 100 | > 100 | > 100 |  | > 100 | > 100 | > 100 | > 100 |  |  |  |  |  |  |  |  |  | 
17 | Cc1cnc(NC(=O)C(Cc2ccccc2)NC(=O)c2ccccc2)s1 (stereo not drawn) | 76.2 |  | 71.6 | 28 | 31.1 | 47.6 | 13.8 | 23.8 | 17.5 | 49.9 | 15.1 µM | 22.9 µM | 10 µM | 14.2 µM | 3.54 µM | 3.83 µM | 19.8 | 3.05 µM |  | 19.5
18 | COc1cccc(NC(=O)CC(=O)n2nc(C)c(N=Nc3ccccc3)c2C)c1 | > 100 |  | > 100 | > 100 | > 100 | > 100 |  | > 100 | > 100 | > 100 |  |  |  |  |  |  |  |  |  | 
19 | CC1(C)OC(=O)C(=Cc2ccc(O)cc2)C(=O)O1 | > 100 |  | > 100 | > 100 | > 100 | > 100 | > 100 | > 100 | > 100 | > 100 |  |  |  |  |  |  |  |  |  | 
20 | COc1c2ccoc2c(/C=C/C=O)c2oc(-c3ccccc3)cc(=O)c12 | > 100 | 14.7 | 42.6 | 9.48 | 16.4 |  | 61.4 | 8.08 |  | 9.17 | 26.9 µM | 6.34 µM | 2.49 µM | 3.59 µM | 11.3 µM | 2.44 µM | 2.73 |  | 4.26 | 
